Test [1] has as its target T1, rat growth hormone receptor (Rattus norvegicus, UniProt P16310).
T1 construct: expressed in transfected cells; host or cells: FDC-1 cells
T1 sequence (P16310 19-638): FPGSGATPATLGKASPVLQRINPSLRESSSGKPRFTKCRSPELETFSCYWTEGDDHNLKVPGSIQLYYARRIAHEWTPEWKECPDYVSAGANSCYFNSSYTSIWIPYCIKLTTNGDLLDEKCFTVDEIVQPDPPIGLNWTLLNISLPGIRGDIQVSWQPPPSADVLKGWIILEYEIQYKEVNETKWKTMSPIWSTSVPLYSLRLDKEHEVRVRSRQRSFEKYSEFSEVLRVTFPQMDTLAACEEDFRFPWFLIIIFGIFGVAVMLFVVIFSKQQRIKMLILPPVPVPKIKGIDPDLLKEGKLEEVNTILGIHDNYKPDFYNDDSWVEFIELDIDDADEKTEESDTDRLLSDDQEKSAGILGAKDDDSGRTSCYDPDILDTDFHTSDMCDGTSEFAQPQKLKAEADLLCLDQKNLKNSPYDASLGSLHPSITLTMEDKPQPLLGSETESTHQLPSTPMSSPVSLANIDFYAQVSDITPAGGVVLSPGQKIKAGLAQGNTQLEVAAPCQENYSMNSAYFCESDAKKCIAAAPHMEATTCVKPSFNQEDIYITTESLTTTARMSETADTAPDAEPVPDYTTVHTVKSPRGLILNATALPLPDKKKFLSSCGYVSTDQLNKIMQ
The test can be described thus: Cell proliferation assay (WST-1) in FDC-1 cells stably transfected with rat growth hormone receptor. The class given is cell-based. To be noted: 18 h. The procedure: Cells transfected with rat GHR (50,000 cells per well) were incubated with either bovine GH, H5 peptide (SEQ ID NO:8), 447 peptide (SEQ ID NO:11) or control peptide (SEQ ID NO:10) for 18 h at 37° C. Experiments were done in triplicate. Background signal A450=0.15. […] Cells transfected with rat GHR (50,000 cells per well) containing […] bovine GH were incubated with either control peptide (SEQ ID NO:10), H5 peptide (SEQ ID NO:8) or 447 peptide (SEQ ID NO:11) for 18 h at 37° C. Proliferation was measured using WST-1 reagent. The “*” symbol corresponds to the A450 measurement for the cells incubated without GH.
Agonistic and antagonistic activities of the two peptides, H5WT (SEQ ID NO:8) and bP#447 ([…]), were tested in FDC-1 cells stably transfected with the gene encoding the rat growth hormone receptor. The resulting cell line required either IL-3 or GH for growth. The cells were grown in RPMI 1640 medium containing 10% FCS (fetal calf serum) and 20 units of IL-3 per ml. […] activity assays were performed in a total volume of 100 μl in 96 well plates (flat bottom). Cells were seeded at 50,000 cells/well in 50 μl RPMI 1640 (without IL-3) medium containing horse serum instead of FCS to reduce background. To duplicate wells, 50 μl of either growth hormone or peptides at different concentrations was added, followed by incubation for 18 h in a CO2 incubator. Assays to measure the antagonistic activity were performed in a total volume of 100 μl in 96 well plates. Either H5WT peptide (SEQ ID NO:8), bP#447 peptide (SEQ ID NO:11), or control peptide (SEQ ID NO:10) was added to cells containing 0.003 μM of bovine GH and incubated at 37° C. for 18 h in a CO2 incubator. Proliferation assays were performed using WST-1 reagent. The WST-1 tetrazolium salt (light red color) is cleaved to formazan (dark red color) by the succinate-tetrazolium reductase system, which is active only in viable cells. […] Ten microliters of WST-1 reagent was added and the plates incubated for 1–4 h 37° C. Proliferation was measured by absorbance at 450 nm.
(In general: Tetrazolium dyes change colour on reduction, which living cells bring about.)

Test [2] addresses T2, rGHBP (Rattus norvegicus, UniProt P16310).
T2 construct: 1–48 of GHBP; The 3′ oligo used for this reaction encoded the mutation L43R (CTG→AGA); The second PCR reaction amplified the DNA encoding amino acids 38–260; 6xHis; made in house
T2 sequence (P16310 19-278 isoform P16310-2): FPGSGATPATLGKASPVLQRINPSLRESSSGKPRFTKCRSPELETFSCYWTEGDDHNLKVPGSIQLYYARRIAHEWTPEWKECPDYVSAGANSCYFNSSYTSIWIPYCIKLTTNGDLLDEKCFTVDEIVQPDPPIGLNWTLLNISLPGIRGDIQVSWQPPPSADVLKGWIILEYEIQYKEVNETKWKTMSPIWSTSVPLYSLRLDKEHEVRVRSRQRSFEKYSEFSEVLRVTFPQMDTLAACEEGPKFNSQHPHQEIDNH
Nature of the test: Phage ELISA binding and competition on rGHBP coated wells. How it is done: For analysis of individual clones, colonies were picked and phage prepared as described above. Microtiter wells were coated and blocked as described above. Wells were coated with either rGHBP or a control IgG MAb. Phage resuspended in MPBS were added to duplicate wells (100 μl/well) and incubated at room temperature for 1 hr. The phage solution was then removed, and the wells were washed three times with PBS at room temperature. Anti-M13 antibody conjugated to horseradish peroxidase (Pharmacia Biotech) was diluted 1:3000 in MPBS and added to each well (100 μl/well). Incubation was for another hour at room temperature, followed by PBS washes as described. Color was developed by addition of ABTS solution (100 μl/well; Boehringer). Color development was stopped by adjusting each well to 0.5% SDS. Plates were analyzed at 405 nm using a SpectraMax 340 plate reader (Molecular Devices) and SoftMax Pro software. Data points were averaged after subtraction of appropriate blanks. A clone was considered “positive” if the A405 of the well was >2-fold over background. […]
These clones were next analyzed for binding to the receptor's active sites (FIG. 2B). Competitions of phage binding were done both with the cognate ligand (i.e., GH) and with a specific target-neutralizing MAb 2C3 (Wang, B. S., et al. Mol. Cellular Endocrinology, vol. 116, p. 223–226, 1996).
Clones were tested for the presence of E-tag and binding to ‘hu’ GHBP, rGHBP, or BSA-coated wells. Those having specific GHBP binding (i.e., at least 2 fold greater binding to the GHBP than BSA) and with an E-tag positive signal were subjected to DNA sequencing. Three different clones were isolated and tested a second time against GHBP plus and minus GH (1 μM) or BSA (1 μM) coated wells as described. In these tests, huGH was used as competitor with ‘hu’ GHBP coated wells and bovineGH was used as a competitor with rat GHBP coated wells. […] The following open reading frame insertion including the DYKD (SEQ ID NO:79) amino terminal tag and up to the C-terminal E-tag was obtained for these clones; and is shown in Table III: […]
A general note: ELISA stands for enzyme-linked immunosorbent assay.

Consider 1 compound from patent publication US7148193B2, “Compounds that bind to growth hormone receptor” (Antyra, Inc., priority 1997, dated 2006).

Where a SMILES comes first, the peptide text is derived from it. Bridges are numbered along the chain shown (N, C = ends).

Regarding `CC(C)C[C@@H]1NC(=O)[C@H](CO)NC(=O)[C@H](CCC(N)=O)NC(=O)[C@@H](NC(=O)[C@H](CC(C)C)NC(=O)[C@H](CC(=O)O)NC(=O)[C@H](CCCCN)NC(=O)[C@H](Cc2ccc(O)cc2)NC(=O)[C@@H](N)CC(=O)O)CSSC[C@@H](C(=O)N[C@@H](C)C(=O)N[C@@H](CCCCN)C(=O)N[C@@H](CCCCN)C(=O)O)NC(=O)[C@H](Cc2c[nH]c3ccccc23)NC(=O)CNC(=O)[C@H](C)NC(=O)[C@H](CC(C)C)NC(=O)[C@H](Cc2c[nH]c3ccccc23)NC(=O)CNC(=O)[C@@H]2CCCN2C(=O)[C@H](Cc2ccc(O)cc2)NC(=O)[C@H]([C@@H](C)O)NC(=O)[C@H](C(C)C)NC(=O)CNC1=O` [H5] (H-DYKDLCQSLGVTYPGWLAGWCAKK-OH; disulfide 6-21; N-terminus and C-terminus assumed), the antagonistic activity entry in test [1] (cells with 0.003 μM bovine GH, at the concentrations tested) is recorded as “no antagonistic activity”. The agonistic activity entry in test [1] (no GH added, WST-1 A450) was “partial agonistic activity”. Further, the “ELISA Competition, rGHBP, +BSA” value in test [2] (ELISA signal, BSA 1 μM, phage concentrated 15×) is recorded as 1.87. In test [2] (ELISA signal, bovine GH 1 μM, phage concentrated 15×), the “ELISA Competition, rGHBP, +bGH” value is 0.32. Moreover, in test [2] (ELISA signal, no competitor, phage concentrated 15×), the “ELISA Competition, rGHBP, none” value turned out to be 1.91. In addition, the “phage binding to rGHBP blocked by GH and MAb 2C3” value in test [2] (competition ELISA of phage binding) was “blocked both by GH and by MAb 2C3”.
